Structures can show the parent of a compound that is named as a salt. Where two headings read alike, the source gives them in different places.
How the values were obtained:
[1] = target: GST-Syk Full Protein (human) (Homo sapiens, UniProt P43405); test: Syk kinase inhibition test (HTRF method); type: biochemical
Procedure, shortened: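 Human GST-Syk full-length (6.4 nM) phosphorylated biotin-EDPDYEWPSA-NH2 (250 nM) with 100 μM ATP in HEPES pH 7.0/MgCl2 buffer, 2% DMSO, 30 min at room temperature. EDTA stop, then HTRF detection (streptavidin-XL665, Eu anti-phosphotyrosine) after 1 h; 665/620 ratio read.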

[2] = tested on: cultured human mast cells; test: Degranulation inhibition test using cultured human mast cells (IgE cross-linking, β-Hexosaminidase release); type: cell-based; details: Mast cell, cultured human mast cells, read-out: human degranulation ave. IC50
Procedure, shortened: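 CD34+ cord-blood cells cultured ≥8 weeks with SCF/IL-6/IL-3; FcεRI primed 5 days with rhIL-4 (1 ng/mL) and hIgE (0.5 μg/mL). Compound (0.1% DMSO) preincubated 10 min at 37 °C, then anti-IgE (final 10 μg/mL) 30 min; released β-hexosaminidase read at 405 nm versus total lysate, IC50 (M).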

[3] = Tables 1-x, compounds A, read-out: sykHTRF ave IC50
[4] = Tables 2-x, thiophene compounds B, read-out: sykHTRK ave IC50
[5] = Tables 2-x, thiophene compounds B

IC50 [1, 3] [nM]	IC50 ([2]; Tables 1-x, compounds A) [nM]	IC50 [1, 4] [nM]	IC50 [2, 5] [nM]	SMILES
–	–	< 100	> 1000	CC(=O)c1ccc(-c2cccc(Nc3cc(C)ccn3)n2)s1 [Compound B-1, 1-{5-[6-(4-methylpyridin-2-ylamino)pyridin-2-yl]thiophen-2-yl}ethanone]
–	–	< 100	> 1000	Cc1ccnc(Nc2cccc(-c3ccc(C=O)s3)n2)c1 [Compound B-2, 5-[6-(4-methylpyridin-2-ylamino)pyridin-2-yl]thiophene-2-carboxaldehyde]
–	–	100 to 1000	100 to 1000	Cc1ccnc(Nc2cccc(-c3ccc(C(C)O)s3)n2)c1 (stereo not drawn) [Compound B-3, 1-{5-[6-(4-methylpyridin-2-ylamino)pyridin-2-yl]thiophen-2-yl}ethanol]
–	–	100 to 1000	> 1000	CC(=O)OC(C)c1ccc(-c2cccc(Nc3cc(C)ccn3)n2)s1 (stereo not drawn) [Compound B-4, 1-{5-[6-(4-methylpyridin-2-ylamino)pyridin-2-yl]thiophen-2-yl}ethyl acetate acetic acid ester]
–	–	100 to 1000	> 1000	Cc1ccnc(Nc2cccc(-c3sccc3C)n2)c1 [Compound B-5]
–	–	100 to 1000	100 to 1000	CC(=O)c1cc(C)c(-c2cccc(Nc3cc(C)ccn3)n2)s1 [Compound B-6]
–	–	100 to 1000	> 1000	CC(=NO)c1cc(C)c(-c2cccc(Nc3cc(C)ccn3)n2)s1 [Compound B-7]
–	–	100 to 1000	> 1000	CC(=O)Nc1cc(C)c(-c2cccc(Nc3cc(C)ccn3)n2)s1 [Compound B-8]
–	–	100 to 1000	100 to 1000	CNC(=O)c1cc(C)c(-c2cccc(Nc3cc(C)ccn3)n2)s1 [Compound B-9]
–	–	< 100	100 to 1000	CC(=O)Nc1ccc(-c2cccc(Nc3cc(C)ccn3)n2)s1 [Compound B-10, N-{5-[6-(4-methylpyridin-2-ylamino)pyridin-2-yl]thiophen-2-yl}acetamide]
–	–	< 100	100 to 1000	CNC(=O)c1ccc(-c2cccc(Nc3cc(C)ccn3)n2)s1 [Compound B-11, N-methyl-5-[6-(4-methylpyridin-2-ylamino)pyridin-2-yl]thiophene-2-carboxamide]
–	–	< 100	100 to 1000	Cc1ccnc(Nc2cccc(-c3ccc(CO)s3)n2)c1 [Compound B-12, {5-[6-(4-methylpyridin-2-ylamino)pyridin-2-yl]thiophen-2-yl}methanol]
–	–	100 to 1000	> 1000	Cc1ccnc(Nc2cccc(-c3ccc(C)s3)n2)c1 [Compound B-13]
–	–	100 to 1000	100 to 1000	Cc1ccnc(Nc2cccc(-c3ccc(CN(C)C)s3)n2)c1 [Compound B-14]
–	–	< 100	100 to 1000	CC(=NO)c1ccc(-c2cccc(Nc3cc(C)ccn3)n2)s1 [Compound B-15, 1-{5-[6-(4-methylpyridin-2-ylamino)pyridin-2-yl]thiophen-2-yl}ethanone oxime]
–	–	100 to 1000	> 1000	Cc1ccnc(Nc2cccc(-c3ccc(Cl)s3)n2)c1 [Compound B-16]
–	–	< 100	100 to 1000	COc1ccnc(Nc2cccc(-c3ccc(C(C)=O)s3)n2)c1 [Compound B-17, 1-{5-[6-(4-methoxypyridin-2-ylamino)pyridin-2-yl]thiophen-2-yl}ethanone]
–	–	100 to 1000	> 1000	CON=C(C)c1ccc(-c2cccc(Nc3cc(C)ccn3)n2)s1 [Compound B-18]
–	–	100 to 1000	> 1000	COC(=O)c1ccc(-c2cccc(Nc3cc(C)ccn3)n2)s1 [Compound B-19]
–	–	100 to 1000	> 1000	Cc1ccnc(Nc2cccc(-c3ccc(C(=O)O)s3)n2)c1 [Compound B-20]
–	–	> 1000	> 1000	Cc1ccnc(Nc2cccc(-c3sc([N+](=O)[O-])cc3C)n2)c1 [Compound B-21]
–	–	100 to 1000	> 1000	Cc1ccnc(Nc2cccc(-c3ccc(C(=O)N(C)C)s3)n2)c1 [Compound B-22]
–	–	< 100	> 1000	Cc1ccnc(Nc2cccc(-c3ccc(C(N)=O)s3)n2)c1 [Compound B-23, 5-[6-(4-methylpyridin-2-ylamino)pyridin-2-yl]thiophene-2-carboxamide]
–	–	100 to 1000	100 to 1000	Cc1ccnc(Nc2cccc(-c3ccc(C(=O)NCCO)s3)n2)c1 [Compound B-24]
–	–	100 to 1000	> 1000	CNCc1ccc(-c2cccc(Nc3cc(C)ccn3)n2)s1 [Compound B-25]
–	–	100 to 1000	> 1000	CC(=O)c1ccc(-c2cccc(Nc3cc(N(C)C)ncn3)n2)s1 [Compound B-26]
–	–	100 to 1000	> 1000	Cc1ccnc(Nc2cccc(-c3cccs3)n2)c1 [Compound B-27]

Second part, the molecule before the results:

SMILES	IC50 [1, 3] [nM]	IC50 ([2]; Tables 1-x, compounds A) [nM]	IC50 [1, 4] [nM]	IC50 [2, 5] [nM]
Cc1ccnc(Nc2cccc(-c3cnc(N(C)Cc4ccc(C(=O)O)s4)s3)n2)c1 [Compound A-603, 5-[(N-methyl-N-{5-[6-(4-methylpyridin-2-ylamino)pyridin-2-yl]thiazol-2-yl}amino)methyl]thiophene-2-carboxylic acid]	< 100	> 1000	–	–
Cc1ccnc(Nc2cccc(-c3cnc(N(C)Cc4ccc(C(=O)O)cc4Cl)s3)n2)c1 [Compound A-604, 3-chloro-4-[(N-methyl-N-{5-[6-(4-methylpyridin-2-ylamino)pyridin-2-yl]thiazol-2-yl}amino)methyl]benzoic acid dihydrochloride]	< 100	100 to 1000	–	–
Cc1ccnc(Nc2cccc(-c3cnc(COc4ccc(C(=O)O)cc4)s3)n2)c1 [Compound A-605, 4-{5-[6-(4-methylpyridin-2-ylamino)pyridin-2-yl]thiazol-2-ylmethoxy}benzoic acid]	< 100	> 1000	–	–
COc1cc(C(=O)O)ccc1CN(C)c1ncc(-c2cccc(Nc3cc(C)ccn3)n2)s1 [Compound A-606, 3-methoxy-4-[(N-methyl-N-{5-[6-(4-methylpyridin-2-ylamino)pyridin-2-yl]thiazol-2-yl}amino)methyl]benzoic acid dihydrochloride]	< 100	100 to 1000	–	–
Cc1ccnc(Nc2cccc(-c3cnc(N4CCc5cc(C(=O)O)ccc5C4)s3)n2)c1 [Compound A-607, 2-{5-[6-(4-methylpyridin-2-ylamino)pyridin-2-yl]thiazol-2-yl}-1,2,3,4-tetrahydroisoquinoline-6-carboxylic acid]	< 100	100 to 1000	–	–
Cc1ccnc(Nc2cccc(-c3cnc(N(C)Cc4nc(C(=O)O)cs4)s3)n2)c1 [Compound A-609, 2-[(N-methyl-N-{5-[6-(4-methylpyridin-2-ylamino)pyridin-2-yl]thiazol-2-yl}amino)methyl]thiazole-4-carboxylic acid]	< 100	> 1000	–	–
Cc1ccnc(Nc2cccc(-c3cnc(N(C)[C@H]4CC[C@H](CC(=O)O)CC4)s3)n2)c1 [Compound A-610, [trans-4-(N-methyl-N-{5-[6-(4-methylpyridin-2-ylamino)pyridin-2-yl]thiazol-2-yl}amino)cyclohexyl]acetic acid]	< 100	100 to 1000	–	–
Cc1ccnc(Nc2cccc(-c3cnc(N(C)[C@H]4CC[C@@H](CC(=O)O)CC4)s3)n2)c1 [Compound A-611, [cis-4-(N-methyl-N-{5-[6-(4-methylpyridin-2-ylamino)pyridin-2-yl]thiazol-2-yl}amino)cyclohexyl]acetic acid]	< 100	100 to 1000	–	–
Cc1ccnc(Nc2cccc(-c3cnc(CCC4CCC(C(=O)O)CC4)s3)n2)c1 (stereo not drawn) [Compound A-612, 4-(2-{5-[6-(4-methylpyridin-2-ylamino)pyridin-2-yl]thiazol-2-yl}ethyl)cyclohexanecarboxylic acid]	< 100	> 1000	–	–
Cc1ccnc(Nc2cccc(-c3cnc(N4CCC(C)(CC(=O)O)CC4)s3)n2)c1 [Compound A-613, (4-methyl-1-{5-[6-(4-methylpyridin-2-ylamino)pyridin-2-yl]thiazol-2-yl}piperidin-4-yl)acetic acid dihydrochloride]	< 100	100 to 1000	–	–
Cc1ccnc(Nc2cccc(-c3cnc(N4CCOc5c(C(=O)O)cccc54)s3)n2)c1 [Compound A-614, 4-{5-[6-(4-methylpyridin-2-ylamino)pyridin-2-yl]thiazol-2-yl}-3,4-dihydro-2H-benzo[1,4]oxazine-8-carboxylic acid]	< 100	> 1000	–	–
Cc1ccnc(Nc2cccc(-c3cnc(N(C)C(C)(C)c4ccc(C(=O)O)cc4)s3)n2)c1 [Compound A-616, 4-[1-methyl-1-(N-methyl-N-{5-[6-(4-methylpyridin-2-ylamino)pyridin-2-yl]thiazol-2-yl}amino)ethyl]benzoic acid dihydrochloride]	< 100	100 to 1000	–	–
Cc1ccnc(Nc2cccc(-c3cnc(N(C)c4ccc(CC(=O)O)cc4)s3)n2)c1 [Compound A-617, [4-(N-methyl-N-{5-[6-(4-methylpyridin-2-ylamino)pyridin-2-yl]thiazol-2-yl}amino)phenyl]acetic acid dihydrochloride]	< 100	> 1000	–	–
O=C(O)CC1CCN(c2ncc(-c3cccc(Nc4cc(Cl)ccn4)n3)s2)CC1 [Compound A-620, (1-{5-[6-(4-chloropyridin-2-ylamino)pyridin-2-yl]thiazol-2-yl}piperidin-4-yl)acetic acid dihydrochloride]	< 100	100 to 1000	–	–
Cc1ccnc(Nc2cccc(-c3cnc(N4CCC(C(C)C(=O)O)CC4)s3)n2)c1 (stereo not drawn) [Compound A-652, 2-(1-{5-[6-(4-methylpyridin-2-ylamino)pyridin-2-yl]thiazol-2-yl}piperidin-4-yl)propionic acid]	< 100	< 100	–	–

Source: US7803801B2, “Aminopyridine compounds having Syk inhibitory activity” (Japan Tobacco, Inc., priority 2005, dated 2010)
